Test results as given in patent US20210276967A1 (OSPEDALE SAN RAFFAELE S.R.L., priority 2018, published 2021).

System: HBV
Assay: not given
Details: Phase 1b clinical studies; cited from earlier work

| Structure (SMILES) | reduction in HBV DNA | reduction in serum HBV RNA |
| --- | --- | --- |
| O=C(Nc1cc(F)c(F)c(F)c1)c1ccc(F)c(S(=O)(=O)N2CCC(O)CC2)c1 [NVR3-778] | significant reduction | significant reduction |

System: HBV
Assay: HBV inhibition in HepAD38 cells, extracellular HBV DNA by direct qPCR
Format: cell-based, hepatitis B virus
Details: Hepatitis B virus; 0.1 μM, HepAD38, 96 hours; read-out: HBV inhibition % (conc μM)
From the text: HepAD38 cell line (Ladner et al., Antimicrob Agents Chemother, 1997, 41, 1715-20) was used for HBV inhibition assays. HepAD38 is a subclone, derived from hepatoblastoma cell line HepG2 (ATCC® Number: HB-8065™), that expresses HBV genome under the transcriptional control of a tetracycline-responsive promoter in a TET-OFF system: addition of tetracycline (TET) or doxycycline suppresses HBV replication, while its removal switches on the process allowing HBV viral particles release in the cell supernatant. HepAD38 cell line is maintained in DMEM/F12, supplemented with 10% of fetal bovine serum, 1% of glutamine, 1% of penicillin/streptomycin, 0.4 mg/ml G418 and 0.3 ug/ml tetracycline. For the HBV inhibition assay, doxycycline-free medium is used in order to allow virion production.
HBV inhibition activity in vitro was performed in 96 multiwell plates. During the initial (primary) screening compounds were first tested in triplicates at concentrations of 0.1 μM, 0.5 μM and 1 μM. For selected compounds, an 8-point dose-response curve was obtained using 1:2 serial dilutions (starting from 2.5 μM, 1.25 μM or 0.4 μM, depending on the degree of inhibition observed during the primary screening). From the dose-response curves, half maximal effective concentration (EC50) could be calculated (see also below).
In more detail, compounds—typically dissolved in DMSO stock solutions—were diluted to 2× the final desired concentration in 100 μl of the above medium (without doxycycline) and plated in three replicates in the 96-well plates.
Simultaneously, HepAD38 cells—extensively pre-washed in tetracycline-free medium in order to induce HBV production—were suspended at 2*10^4 cells in 100 μl of tetracycline-free medium and added to each well of the plate, to yield a final assay volume of 200 μl.
DMSO, used for stock solutions and compounds dilutions, is always present in the assays at a final concentration of 0.5%.
Plates were then incubated 96 hours at 37° C. and then subjected to cell viability assays and extracellular HBV quantification, in order to evaluate both the cytotoxic potential and the anti-viral activity of compounds.
Cytotoxicity was assessed by a commercial fluorescence assay that measures the metabolic activity of cells, directly related to cell viability (Cell Titer Blue, Promega). For each compound, cytotoxicity was evaluated at the same concentration employed to evaluate its anti-HBV activity. Anti-HBV activity was evaluated by quantification of extracellular HBV DNA with direct qPCR. In particular, supernatant was collected and centrifuged for cell debris clarification, viral DNA was extracted from virions by addition of lysis buffer (1 mM 1,4-dithiothreitol, 0.2% sodium dodecyl sulphate) and incubated at 95° C. for 10 min. Samples were then diluted 1:40 and real time PCR amplification was performed with SYBR green assay (Power SYBR™ Green PCR Master Mix-Thermo Fisher Scientific) and specific HBV primer (HBV-DF:5′-[…]-3′ (SEQ ID No. 1), HBV-DR:5′-[…]-3′ (SEQ ID No. 2)).
All HBV inhibition or antiviral activity data are typically reported in percent (%) relative to a non-treated reference sample. Excel and Graphpad Prism programs are typically used for data elaboration and EC50 calculation.

| Structure (SMILES) | inhibition at 0.1 µM |
| --- | --- |
| Nc1ncc(C(=O)Nc2cc(F)c(F)c(F)c2)cc1S(=O)(=O)N[C@H]1CC[C@H](O)CC1 [Example E58, trans-6-amino-5-(N-(4-hydroxycyclohexyl)sulfamoyl)-N-(3,4,5-trifluorophenyl)nicotinamide] | < 50% |
| Cc1cc(N)c(S(=O)(=O)N[C@H](C)C(F)(F)F)cc1C(=O)Nc1cc(F)c(F)c(F)c1 [Example E63, (R)-4-amino-2-methyl-N-(3,4,5-trifluorophenyl)-5-(N-(1,1,1-trifluoropropan-2-yl)sulfamoyl)benzamide] | > 50% |
| Cc1cc(N)c(S(N)(=O)=O)cc1C(=O)Nc1cc(F)c(F)c(Cl)c1 [Example E65, 4-amino-N-(3-chloro-4,5-difluorophenyl)-2-methyl-5-sulfamoylbenzamide] | > 50% |
| Cc1cc(N)c(S(N)(=O)=O)cc1C(=O)Nc1ccc(F)c(C(F)F)c1 [Example E68, 4-amino-N-(3-(difluoromethyl)-4-fluorophenyl)-2-methyl-5-sulfamoylbenzamide] | > 50% |

Same assay, conditions: Hepatitis B virus; 0.5 μM, HepAD38, 96 hours; read-out: HBV inhibition % (conc μM)

| Structure (SMILES) | inhibition at 0.5 µM |
| --- | --- |
| Nc1ccc(C(=O)Nc2cc(F)c(F)c(F)c2)cc1S(=O)(=O)NC1(CO)COC1 [Example E38, 4-amino-3-(N-(3-(hydroxymethyl)oxetan-3-yl)sulfamoyl)-N-(3,4,5-trifluorophenyl)benzamide] | > 50% |
| Nc1ccc(C(=O)Nc2cc(F)c(F)c(F)c2)cc1S(=O)(=O)NCC1(O)CCCCC1 [Example E39, 4-amino-3-(N-((1-hydroxycyclohexyl)methyl)sulfamoyl)-N-(3,4,5-trifluorophenyl)benzamide] | > 50% |
| CC(NS(=O)(=O)c1cc(C(=O)Nc2cc(F)c(F)c(F)c2)ccc1N)c1ccccn1 (stereo not shown) [Example E42, 4-amino-3-(N-(1-(pyridin-2-yl)ethyl)sulfamoyl)-N-(3,4,5-trifluorophenyl)benzamide] | < 50% |
| Nc1ccc(C(=O)Nc2ccc(F)c(Cl)c2)cc1S(=O)(=O)N[C@H]1CC[C@H](O)CC1 [Example E43, trans-4-amino-N-(3-chloro-4-fluorophenyl)-3-(N-(4-hydroxycyclohexyl)sulfamoyl)benzamide] | > 50% |
| Nc1ccc(C(=O)Nc2ccc(F)c(C(F)F)c2)cc1S(=O)(=O)N[C@H]1CC[C@H](O)CC1 [Example E44, 4-amino-N-(3-(difluoromethyl)-4-fluorophenyl)-3-(N-((1r,4r)-4-hydroxycyclohexyl)sulfamoyl)benzamide] | > 50% |
| Cc1cc(NC(=O)c2ccc(N)c(S(=O)(=O)N[C@H]3CC[C@H](O)CC3)c2)ccc1F [Example E46] | > 50% |
| Nc1ccc(C(=O)Nc2cc(F)c(F)c(F)c2)cc1S(=O)(=O)N[C@H]1CC[C@@H](O)C1 [Example E47, 4-amino-3-(N-((1S,3R)-3-hydroxycyclopentyl)sulfamoyl)-N-(3,4,5-trifluorophenyl)benzamide] | > 50% |
| Nc1ccc(C(=O)Nc2cc(F)c(F)c(F)c2)cc1S(=O)(=O)NC(CO)CO [Example E48, 4-amino-3-(N-(1,3-dihydroxypropan-2-yl)sulfamoyl)-N-(3,4,5-trifluorophenyl)benzamide] | < 50% |
| Nc1ccc(C(=O)Nc2cc(F)c(F)c(F)c2)cc1S(=O)(=O)N[C@@H]1CC[C@H](O)C1 [Example E49, 4-amino-3-(N-((1R,3S)-3-hydroxycyclopentyl)sulfamoyl)-N-(3,4,5-trifluorophenyl)benzamide] | > 50% |
| Nc1ccc(C(=O)Nc2cc(F)c(F)c(F)c2)cc1S(=O)(=O)N1CCC(O)(CO)CC1 [Example E50, 4-amino-3-((4-hydroxy-4-(hydroxymethyl)piperidin-1-yl)sulfonyl)-N-(3,4,5-trifluorophenyl)benzamide] | > 50% |
| Nc1ccc(C(=O)Nc2cc(F)c(F)c(F)c2)cc1S(=O)(=O)N1CCC(O)C1 (stereo not shown) [Example E53, 4-amino-3-((3-hydroxypyrrolidin-1-yl)sulfonyl)-N-(3,4,5-trifluorophenyl)benzamide] | > 50% |
| Nc1ccc(C(=O)Nc2ccc(F)c(Cl)c2)cc1S(=O)(=O)N1CCC(O)CC1 [Example E54, 4-amino-N-(3-chloro-4-fluorophenyl)-3-((4-hydroxypiperidin-1-yl)sulfonyl)benzamide] | > 50% |
| Nc1ccc(C(=O)Nc2ccc(F)c(Cl)c2)cc1S(=O)(=O)N1CC(O)C1 [Example E55, 4-amino-N-(3-chloro-4-fluorophenyl)-3-((3-hydroxyazetidin-1-yl)sulfonyl)benzamide] | > 50% |
| Nc1ccc(C(=O)Nc2cc(F)c(F)c(F)c2)cc1S(=O)(=O)NCC(O)CO (stereo not shown) [Example E56, 4-amino-3-(N-(2,3-dihydroxypropyl)sulfamoyl)-N-(3,4,5-trifluorophenyl)benzamide] | > 50% |
| Nc1ccc(S(N)(=O)=O)cc1C(=O)Nc1cc(F)c(F)c(F)c1 [Example E59, 2-amino-5-sulfamoyl-N-(3,4,5-trifluorophenyl)benzamide] | < 50% |
| Cc1cc(N)c(S(=O)(=O)N[C@@H](C)C(F)(F)F)cc1C(=O)Nc1cc(F)c(F)c(F)c1 [Example E64, (S)-4-amino-2-methyl-N-(3,4,5-trifluorophenyl)-5-(N-(1,1,1-trifluoropropan-2-yl)sulfamoyl)benzamide] | > 50% |
| Cc1cc(N)c(S(N)(=O)=O)cc1C(=O)Nc1ccc(Cl)nc1 [Example E66, 4-amino-N-(6-chloropyridin-3-yl)-2-methyl-5-sulfamoylbenzamide] | < 50% |
| Cc1cc(N)c(S(N)(=O)=O)cc1C(=O)Nc1ccc(F)c(C(F)(F)F)c1 [Example E67, 4-amino-N-(4-fluoro-3-(trifluoromethyl)phenyl)-2-methyl-5-sulfamoylbenzamide] | > 50% |
| Cc1cc(N)c(S(N)(=O)=O)cc1C(=O)Nc1ccc(F)c(C#N)c1 [Example E69, 4-amino-N-(3-cyano-4-fluorophenyl)-2-methyl-5-sulfamoylbenzamide] | > 50% |

Same assay, conditions: Hepatitis B virus; 1 μM, HepAD38, 96 hours; read-out: HBV inhibition % (conc μM)

| Structure (SMILES) | inhibition at 1 µM |
| --- | --- |
| CC(C)(C)OC(=O)N[C@@H]1CCC[C@@H]1NS(=O)(=O)c1cc(C(=O)Nc2cc(F)c(F)c(F)c2)ccc1N [Example E51, tert-butyl ((1R,2S)-2-((2-amino-5-((3,4,5-trifluorophenyl)carbamoyl)phenyl)sulfonamido)cyclopentyl)carbamate] | > 50% |
| CC(C)(C)OC(=O)N[C@H]1CCC[C@H]1NS(=O)(=O)c1cc(C(=O)Nc2cc(F)c(F)c(F)c2)ccc1N [Example E52, tert-butyl ((1S,2R)-2-((2-amino-5-((3,4,5-trifluorophenyl)carbamoyl)phenyl)sulfonamido)cyclopentyl)carbamate] | > 50% |

Same assay, conditions: Hepatitis B virus; HepAD38, 8-point dose-response; read-out: HBV inh EC50

| Structure (SMILES) | EC50 |
| --- | --- |
| Cc1cc(N)c(S(N)(=O)=O)cc1C(=O)Nc1ccc(F)c(Cl)c1 [Example E60, 4-amino-N-(3-chloro-4-fluorophenyl)-2-methyl-5-sulfamoylbenzamide] | < 1 µM |
| Nc1ccc(S(=O)(=O)N[C@H]2CC[C@H](O)CC2)cc1C(=O)Nc1cc(F)c(F)c(F)c1 [Example E61, trans-2-amino-5-(N-(4-hydroxycyclohexyl)sulfamoyl)-N-(3,4,5-trifluorophenyl)benzamide] | < 1 µM |
| Nc1ccc(S(=O)(=O)N2CCC(O)CC2)cc1C(=O)Nc1cc(F)c(F)c(F)c1 [Example E62, 2-amino-5-((4-hydroxypiperidin-1-yl)sulfonyl)-N-(3,4,5-trifluorophenyl)benzamide] | < 1 µM |

Same assay, conditions: concentration not given, HepAD38

| Structure (SMILES) | HBV inhibition % (conc μM) |
| --- | --- |
| Cc1cc(NC(=O)c2cc(S(N)(=O)=O)c(N)cc2C)ccc1F [Example E40, 4-amino-N-(4-fluoro-3-methylphenyl)-2-methyl-5-sulfamoylbenzamide] | A (HBV inhibition greater than 50% at the concentration indicated in the table) |
